Reference: patent publication US20220195461A1, “METHODS AND COMPOSITIONS FOR TRANSGENE EXPRESSION” (priority 2019, published 2022)

System: CF (HBE and HTE, dF508/dF508, Passage 0) cells
Assay: LDH activity (toxicity) of AV.TL65 plus proteasome inhibitor versus AAV alone
Format: cell-based, human
Conditions: for LDH (toxicity) activity compared to AAV without a proteasome inhibitor: augmenter + AV.TL65-gLuc-mCherry, 4 days after infection (FIG. 1B); for toxicity of the enhancement: augmenter combined with AV.TL65Luciferase-mCherry, ALI HBE cultures; for LDH relative to baseline: passage 0 (P0) cells
From the text: FIGS. 1A and 1B are a series of graphs showing the ratio of luciferase activity in cells treated with AV.TL65+proteasome inhibitor (PI) versus AAV alone (FIG. 1A) and the ratio of LDH activity in cells treated with AV.TL65+PI versus AAV alone (FIG. 1B). […] Relative Luminescence Units in CF HBE treated with AV.TL65 with PI exceeded 200-fold of AV.TL65 without PI. Toxicity of AV.TL65 with PI as measured by LDH activity was mostly below 150% of AV.TL65 without PI.
We have generated a novel AAV vector featuring a capsid that is highly efficient at transducing human airway epithelium in the apical membrane. Specifically, we have used AV.TL65-SP183-CFTRΔR to deliver an R-domain-partially-deleted CFTR minigene and AV.TL65Luciferase-mCherry, a dual reporter vector, to express luciferase and fluorescent mCherry protein. The AV.TL65-SP183-CFTRΔR rAAV vector included a polynucleotide comprising: a 5′ AAV ITR comprising the sequence of SEQ ID NO:15, an F5 enhancer comprising the sequence of SEQ ID NO:14 (which may include a 5′ EcoRI site and a 3′ XhoI site, as in SEQ ID NO:1), a tg83 promoter comprising the sequence of SEQ ID NO:2, a 5′ UTR comprising the sequence of SEQ ID NO:3, a hCFTRΔR minigene comprising the sequence of SEQ ID NO:4, a 3′ UTR comprising the sequence of SEQ ID NO:5, a s-pA comprising the sequence of SEQ ID NO:6, and a 3′ AAV ITR comprising the sequence of SEQ ID NO:16. For example, the packaged polynucleotide may include the sequence of SEQ ID NO:17. […] We have shown that combining AV.TL65Luciferase-mCherry with doxorubicin or idarubicin provides non-toxic enhancement of luciferase expression by more than 600-fold of air-liquid interface (ALI) human bronchial epithelial (HBE) cultures from 5 separate CF (homozygous dF508/dF508 CFTR) and non-CF donors compared to AV.TL65Luciferase-mCherry without proteasome inhibitor. In another experiment, doxorubicin and idarubicin+AV.TL65-gLuc-mCherry improved transduction over AAV without a proteasome inhibitor by over 200-fold (FIG. 1A, dashed line). Doxorubicin added to AV.TL65-gLuc-mCherry but not idarubicin had less than 150% LDH (toxicity) activity compared to AAV without a proteasome inhibitor (FIG. 1B; dashed line). Transduction efficiency gains in passage 0 (PO) cells were well above 200-fold better with doxorubicin and idarubicin with LDH <1.5× baseline for doxorubicin and >1.5× baseline for idarubicin.

Compound | LDH (toxicity) activity compared to AAV without a proteasome inhibitor | toxicity of the enhancement | LDH relative to baseline [× baseline]
COc1cccc2c1C(=O)c1c(O)c3c(c(O)c1C2=O)C[C@@](O)(C(=O)CO)C[C@@H]3O[C@H]1C[C@H](N)[C@H](O)[C@H](C)O1 [doxorubicin] | less than 150% | non-toxic | < 1.5
CC(=O)[C@]1(O)Cc2c(O)c3c(c(O)c2[C@@H](O[C@H]2C[C@H](N)[C@H](O)[C@H](C)O2)C1)C(=O)c1ccccc1C3=O [idarubicin] | ≥ 150% | non-toxic | > 1.5
